Here are results for twelve compounds from patent US20250114460A1, “NOVEL PLK1 DEGRADATION INDUCING COMPOUND” (UPPTHERA, INC., priority 2021, published 2025).

Structures are written as SMILES.

Common to all, as to type: cell-based
One test has as its target T1, PLK1 (Homo sapiens, UniProt P53350).
T1 construct: endogenous in cells; host or cells: HeLa LgBit (Plk1-HiBit KI): HeLa stably expressing LgBit, with a CRISPR/Cas9 knock-in of HiBit at the endogenous PLK1 locus
Put plainly: Luciferase assay for PLK1 in HeLa LgBit (Plk1-HiBit KI) cell line. As to conditions: 300 nM compound, luminescence after 9 hours. In outline:
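HeLa cells stably expressing LgBit, with HiBit knocked in at the C-terminus of endogenous Plk1, released from a 24 h 2 mM thymidine block and grown 18 h. Endurazine added, then compound at 300 nM; luminescence tracked in real time, expressed as ratio to DMSO.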

The next test relates to MRC-5 cell line. Put plainly: Cell viability assay for MRC-5 cell line (EZ-Cytox). As to conditions: Homo sapiens, MRC5, 120 h; MRC-5 normal cell line, 5 days, 10000 nM to 1.52 nM; N.D. = no cytotoxicity until 10 μM; read-out: Activity: IC50 value of Exemplary Compound to MRC-5 cell line. As to the method:
4. Cell Viability Assay for MRC-5 Cell Line
(1) Culture of MRC-5 Cell Line
Passage of cultured cells was maintained within P15.
(2) Treatment of Compounds of the Present Invention
Then, it was cultured in 37° C.
(3) Cytotoxicity Experiment
CO2 incubator for 4 hours.

The next test deals with NCI-H526 cell line. As to the kind of experiment: Cell viability assay for H526 cell (EZ-Cytox). The conditions noted are these: Homo sapiens, NCI-H526, 120 h; H526 cells, 5 days, 3000 nM to 0.46 nM. In outline: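 NCI-H526 cells were exposed to compound in CO2 incubator culture for 5 days. Viability was read by EZ-Cytox absorbance at 450 nm after 3 min shaking, giving IC50 values.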

T1 sequence (P53350 whole entry): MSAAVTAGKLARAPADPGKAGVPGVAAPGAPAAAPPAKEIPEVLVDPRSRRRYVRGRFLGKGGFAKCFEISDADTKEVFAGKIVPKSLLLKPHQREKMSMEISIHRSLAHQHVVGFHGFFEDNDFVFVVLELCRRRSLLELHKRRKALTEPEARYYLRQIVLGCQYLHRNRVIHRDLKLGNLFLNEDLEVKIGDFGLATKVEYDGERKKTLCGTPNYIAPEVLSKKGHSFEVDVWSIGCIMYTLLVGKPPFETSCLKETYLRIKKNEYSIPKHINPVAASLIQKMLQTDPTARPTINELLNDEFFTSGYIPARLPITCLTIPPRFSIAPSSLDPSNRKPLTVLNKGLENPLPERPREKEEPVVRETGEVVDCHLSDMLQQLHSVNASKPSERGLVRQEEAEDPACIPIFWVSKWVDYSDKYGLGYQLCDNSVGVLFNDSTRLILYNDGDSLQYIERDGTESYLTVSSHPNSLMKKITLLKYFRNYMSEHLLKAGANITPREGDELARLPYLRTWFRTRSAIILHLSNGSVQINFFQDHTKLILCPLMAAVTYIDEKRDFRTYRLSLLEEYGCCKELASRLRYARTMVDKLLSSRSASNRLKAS

As to `COc1cc(C(=O)N2CCN(CCCN3CCN(c4ccc5c(c4)C(=O)N(C4CCC(=O)NC4=O)C5=O)CC3)CC2)ccc1Nc1ncc2c(n1)N(C1CCCC1)CC(F)(F)C(=O)N2C` (stereo not drawn) [Compound 90, 5-(4-(3-(4-(4-((9-cyclopentyl-7,7-difluoro-5-methyl-6-oxo-6,7,8,9-tetrahydro-5H-pyrimido[4,5-b][1,4]diazepin-2-yl)amino)-3-methoxybenzoyl)piperazin-1-yl)propyl)piperazin-1-yl)-2-(2,6-dioxopiperidin-3-yl)isoindoline-1,3-dione], the “Activity: ratio of the luminescense value of each Exemplary Compound treatment group to DMSO treatment group” value (“Activity: ratio” below) at PLK1 is recorded as “++ (++<0.6)”. Also, the half-inhibitory concentration (IC50) (commonly the concentration at which inhibition is half-maximal) in the test with MRC-5 cell line is greater than 10 µM; in the test on NCI-H526 cell line, less than 0.4 µM.

For `COc1cc(C(=O)N2CCN(CCCCN3CCN(c4ccc5c(c4)C(=O)N(C4CCC(=O)NC4=O)C5=O)CC3)CC2)ccc1Nc1ncc2c(n1)N(C1CCCC1)CC(F)(F)C(=O)N2C` (stereo not drawn) [Compound 91, 5-(4-(4-(4-(4-((9-cyclopentyl-7,7-difluoro-5-methyl-6-oxo-6,7,8,9-tetrahydro-5H-pyrimido[4,5-b][1,4]diazepin-2-yl)amino)-3-methoxybenzoyl)piperazin-1-yl)butyl)piperazin-1-yl)-2-(2,6-dioxopiperidin-3-yl)isoindoline-1,3-dione], at PLK1, the “Activity: ratio” value is given as “++ (++<0.6)”. Besides, the half-maximal inhibitory concentration (IC50) with MRC-5 cell line is greater than 10 µM; in the test with NCI-H526 cell line, less than 0.4 µM.

In the case of `COc1cc(C(=O)N2CCN(C/C=C/CN3CCN(c4ccc5c(c4)C(=O)N(C4CCC(=O)NC4=O)C5=O)CC3)CC2)ccc1Nc1ncc2c(n1)N(C1CCCC1)CC(F)(F)C(=O)N2C` (stereo not drawn) [Compound 92, (E)-5-(4-(4-(4-(4-((9-cyclopentyl-7,7-difluoro-5-methyl-6-oxo-6,7,8,9-tetrahydro-5H-pyrimido[4,5-b][1,4]diazepin-2-yl)amino)-3-methoxybenzoyl)piperazin-1-yl)but-2-en-1-yl)piperazin-1-yl)-2-(2,6-dioxopiperidin-3-yl)isoindoline-1,3-dione], the “Activity: ratio” value at PLK1 is listed as “++ (++<0.6)”. Further, the results for the half-inhibitory concentration (IC50) with MRC-5 cell line and in the test on NCI-H526 cell line were greater than 10 µM and less than 0.2 µM, respectively.

In the case of `COc1cc(C(=O)N2CCC(CCN3CCN(c4ccc5c(c4)C(=O)N(C4CCC(=O)NC4=O)C5=O)CC3)CC2)ccc1Nc1ncc2c(n1)N(C1CCCC1)CC(F)(F)C(=O)N2C` (stereo not drawn) [Compound 98, 5-(4-(2-(1-(4-((9-cyclopentyl-7,7-difluoro-5-methyl-6-oxo-6,7,8,9-tetrahydro-5H-pyrimido[4,5-b][1,4]diazepin-2-yl)amino)-3-methoxybenzoyl)piperidin-4-yl)ethyl)piperazin-1-yl)-2-(2,6-dioxopiperidin-3-yl)isoindoline-1,3-dione], the “Activity: ratio” value on PLK1 is listed as “++ (++<0.6)”. Moreover, the half-maximal inhibitory concentration (IC50) was greater than 10 µM in the test on MRC-5 cell line and less than 0.4 µM in the test with NCI-H526 cell line.

Take `COc1cc2c(cc1Nc1ncc3c(n1)N(C1CCCC1)CC(F)(F)C(=O)N3C)CCN(C1CCN(C(=O)CCN3CCN(c4cccc5c4C(=O)N(C4CCC(=O)NC4=O)C5=O)CC3)CC1)C2=O` (stereo not drawn) [Compound 102, 4-(4-(3-(4-(6-((9-cyclopentyl-7,7-difluoro-5-methyl-6-oxo-6,7,8,9-tetrahydro-5H-pyrimido[4,5-b][1,4]diazepin-2-yl)amino)-7-methoxy-1-oxo-3,4-dihydroisoquinolin-2(1H)-yl)piperidin-1-yl)-3-oxopropyl)piperazin-1-yl)-2-(2,6-dioxopiperidin-3-yl)isoindoline-1,3-dione]: the “Activity: ratio” value at PLK1 was “++ (++<0.6)”. Also, the figures for the half-inhibitory concentration (IC50) in the test on MRC-5 cell line and in the test with NCI-H526 cell line were 14.4 µM and less than 0.4 µM, respectively.

For `COc1cc(C(=O)NC2CC(N(C)CCC3CCN(c4ccc5c(c4)C(=O)N(C4CCC(=O)NC4=O)C5=O)CC3)C2)ccc1Nc1ncc2c(n1)N(C1CCCC1)CC(F)(F)C(=O)N2C` (stereo not drawn) [Compound 106, 4-((9-cyclopentyl-7,7-difluoro-5-methyl-6-oxo-6,7,8,9-tetrahydro-5H-pyrimido[4,5-b][1,4]diazepin-2-yl)amino)-N-(3-((2-(1-(2-(2,6-dioxopiperidin-3-yl)-1,3-dioxoisoindolin-5-yl)piperidin-4-yl)ethyl)(methyl)amino)cyclobutyl)-3-methoxybenzamide], the “Activity: ratio” value at PLK1 is given as “+++ (+++: <0.3)”. Besides, the half-inhibitory concentration (IC50) in the test with MRC-5 cell line was greater than 10 µM; with NCI-H526 cell line it was less than 0.1 µM.

As for `COc1cc(C(=O)NC2CC(N(C)CCC3CCN(c4cccc5c4C(=O)N(C4CCC(=O)NC4=O)C5=O)CC3)C2)ccc1Nc1ncc2c(n1)N(C1CCCC1)CC(F)(F)C(=O)N2C` (stereo not drawn) [Compound 107, 4-((9-cyclopentyl-7,7-difluoro-5-methyl-6-oxo-6,7,8,9-tetrahydro-5H-pyrimido[4,5-b][1,4]diazepin-2-yl)amino)-N-(3-((2-(1-(2-(2,6-dioxopiperidin-3-yl)-1,3-dioxoisoindolin-4-yl)piperidin-4-yl)ethyl)(methyl)amino)cyclobutyl)-3-methoxybenzamide], the “Activity: ratio” value at PLK1 was “++ (++<0.6)”. The half-inhibitory concentration (IC50) is greater than 10 µM with MRC-5 cell line and less than 0.1 µM in the test with NCI-H526 cell line.

Regarding `COc1cc(C(=O)N[C@H]2CC[C@H](N3CCN(CCC4CCN(c5cccc6c5C(=O)N(C5CCC(=O)NC5=O)C6=O)CC4)CC3)CC2)c(F)cc1Nc1ncc2c(n1)N(C1CCCC1)CC(F)(F)C(=O)N2C` (stereo partly drawn) [Compound 114, 4-((9-cyclopentyl-7,7-difluoro-5-methyl-6-oxo-6,7,8,9-tetrahydro-5H-pyrimido[4,5-b][1,4]diazepin-2-yl)amino)-N-((1r,4r)-4-(4-(2-(1-(2-(2,6-dioxopiperidin-3-yl)-1,3-dioxoisoindolin-4-yl)piperidin-4-yl)ethyl)piperazin-1-yl)cyclohexyl)-2-fluoro-5-methoxybenzamide], on PLK1, the “Activity: ratio” value is listed as “++ (++<0.6)”. Moreover, the half-inhibitory concentration (IC50) was greater than 10 µM with MRC-5 cell line and less than 0.2 µM in the test with NCI-H526 cell line.

In the case of `COc1cc(C(=O)N[C@H]2CC[C@H](OC3CCN(c4cccc5c4C(=O)N(C4CCC(=O)NC4=O)C5=O)CC3)CC2)c(F)cc1Nc1ncc2c(n1)N(C1CCCC1)CC(F)(F)C(=O)N2C` (stereo partly drawn) [Compound 115, 4-((9-cyclopentyl-7,7-difluoro-5-methyl-6-oxo-6,7,8,9-tetrahydro-5H-pyrimido[4,5-b][1,4]diazepin-2-yl)amino)-N-((1r,4r)-4-((1-(2-(2,6-dioxopiperidin-3-yl)-1,3-dioxoisoindolin-4-yl)piperidin-4-yl)oxy)cyclohexyl)-2-fluoro-5-methoxybenzamide], at PLK1, the “Activity: ratio” value is listed as “++ (++<0.6)”. Besides, the figures for the concentration for half-maximal inhibition (IC50) in the test on MRC-5 cell line and with NCI-H526 cell line were greater than 10 µM and less than 0.4 µM, respectively.

Regarding `CN1C(=O)C(F)(F)CN(C2CCCC2)c2nc(Nc3ccc(C(=O)NC4CCN(C(=O)CCN5CCN(c6cccc7c6C(=O)N(C6CCC(=O)NC6=O)C7=O)CC5)CC4)cc3F)ncc21` (stereo not drawn) [Compound 118, 4-((9-cyclopentyl-7,7-difluoro-5-methyl-6-oxo-6,7,8,9-tetrahydro-5H-pyrimido[4,5-b][1,4]diazepin-2-yl)amino)-N-(1-(3-(4-(2-(2,6-dioxopiperidin-3-yl)-1,3-dioxoisoindolin-4-yl)piperazin-1-yl)propanoyl)piperidin-4-yl)-3-fluorobenzamide], at PLK1, the “Activity: ratio” value is reported as “++ (++<0.6)”. Besides, the results for the IC50 with MRC-5 cell line and with NCI-H526 cell line were greater than 10 µM and less than 0.05 µM, respectively.

As to `COc1cc(C(=O)NC2CCN(C(=O)CCN3CCN(c4cccc5c4C(=O)N(C4CCC(=O)NC4=O)C5=O)CC3)CC2)c(C(F)(F)F)cc1Nc1ncc2c(n1)N(C1CCCC1)CC(F)(F)C(=O)N2C` (stereo not drawn) [Compound 119, 4-((9-cyclopentyl-7,7-difluoro-5-methyl-6-oxo-6,7,8,9-tetrahydro-5H-pyrimido[4,5-b][1,4]diazepin-2-yl)amino)-N-(1-(3-(4-(2-(2,6-dioxopiperidin-3-yl)-1,3-dioxoisoindolin-4-yl)piperazin-1-yl)propanoyl)piperidin-4-yl)-5-methoxy-2-(trifluoromethyl) benzamide], the “Activity: ratio” value at PLK1 was “++ (++<0.6)”. Besides, the IC50 was greater than 10 µM in the test on MRC-5 cell line and less than 0.2 µM with NCI-H526 cell line.

Take `COc1cc(C(=O)NC2CCN(C(=O)CCN3CCN(c4cccc5c4C(=O)N(C4CCC(=O)NC4=O)C5=O)CC3)CC2)ccc1Nc1ncc2c(n1)N(C1CCCC1)CC1(CC1)C(=O)N2C` (stereo not drawn) [Compound 120, 4-((9′-cyclopentyl-5′-methyl-6′-oxo-5′,6′,8′,9′-tetrahydrospiro[cyclopropane-1,7′-pyrimido[4,5-b][1,4]diazepin]-2′-yl)amino)-N-(1-(3-(4-(2-(2,6-dioxopiperidin-3-yl)-1,3-dioxoisoindolin-4-yl)piperazin-1-yl)propanoyl)piperidin-4-yl)-3-methoxybenzamide]: the “Activity: ratio” value at PLK1 is reported as “+++ (+++: <0.3)”. Moreover, the results for the IC50 with MRC-5 cell line and in the test on NCI-H526 cell line were greater than 10 µM and less than 0.05 µM, respectively.
